# Experimental data: a melting point compilation (Tetko et al.; mined from patent text by program, amines drawn as free bases though some values may be those of a salt)
row,Structure (SMILES),melting point [°C]
1,Cc1ccc(C)c(-c2cc(CO)ccc2CO)c1,145 to 148
2,CCn1ncc2c3onc(-c4cccc(O)c4)c3cnc21,187 to 188
3,COc1ccc(Nc2cccc3c2C(=O)N(C2CCC(=O)NC2=O)C3=O)cc1O (stereo unspecified),225 to 227
4,Clc1nccc(Nc2cnc3ccccc3c2)n1,140 to 143
5,CCCCCCOc1ccc(OC)c(Cc2cnc(N)nc2N)c1,139 to 140
6,Cc1cccc(CC(=O)O)c1OCCCc1cn(-c2ccc(C(F)(F)F)cn2)nc1C(C)(C)C,86 to 87
7,CCOC(=O)c1cc(OCC)c(C(=O)OCC)c(OCC)c1,142 to 144
8,CN(CCn1ncc2ccccc2c1=O)CC(O)c1ccc(NS(C)(=O)=O)cc1 (stereo unspecified),134 to 137
9,N#Cc1cnc2n(c1=O)CCCCC2,125
10,CN(C)C(=O)C(C)(C)c1ccccc1,57 to 59
11,CC1(C)CCC(C)(C)c2cc(-c3cc(CO)cc(-c4ccc(C(=O)O)cc4)c3)ccc21,213
12,COC(=O)[C@H](Cc1ccccc1)NC(=O)c1cnccn1,152 to 155
13,O=C(O)c1cn(Cc2csnn2)c2cc(F)c(F)cc2c1=O,257 to 261
14,CN1CCC(Oc2ccc(C#N)cc2C(F)(F)F)CC1,66 to 69
15,CC=Cc1nc2ccc(C)cc2c(=O)[nH]1,232 to 233
16,CCCc1c(OCCCOc2ccc([C@H]3OC(=O)C[C@H]3C)cc2)ccc(C(C)=O)c1O,88.5 to 89.5
17,Cc1cc(-c2ccc3c(c2)c2cc(-c4ccc(Cl)cc4Cl)c(=O)n(C)c2n3C)[nH]n1,309 to 310
18,COc1ccc(-c2cccc3c2OC(COS(=O)(=O)c2ccc(C)cc2)C3)c(OC)c1 (stereo unspecified),120 to 123
19,CCCCCCCCCCOc1cc(OCCCCCCCCCC)cc(N(CC(=O)OCc2ccccc2)CC(=O)OCc2ccccc2)c1,55 to 57
20,Cc1c(-c2ccc(F)cc2)c(-c2ccccc2)nn1C(C)C,135 to 137
21,O=C(c1ccc(F)cc1)c1c(-c2ccc(OCCN3CCCC3)cc2)sc2c(O)cccc12,138 to 142
22,Cc1c(C)c(N2Cc3cc4c(cc3C2)OCO4)c(C)c2c1OC(C)(C)C2c1ccc(C(C)C)cc1 (stereo unspecified),175 to 177

row,Structure (SMILES),melting point [°C]
1,Nc1c([N+](=O)[O-])cnn1-c1c(Cl)cc(Cl)cc1Cl,218 to 220
2,O=c1[nH]c2ccc3c(c2[nH]c1=O)CNCC3,294 to 297
3,COc1ccc(CN2CC(c3ccccc3)=C(O)C2=O)cc1,195 to 198
4,CCc1c(-c2ccc(O)cc2)n(Cc2ccc(OCCN3CCCCC3)cc2)c2ccc(O)cc12,160 to 164
5,CCCCCCCCCCCCCCCCSCc1ccc(N(C)C)cc1,41 to 43
6,COC(=O)c1ccc(CNC(C)=O)cc1S(=O)(=O)NC(=O)Nc1nc(OC)cc(OC)n1,149 to 150
7,NS(=O)(=O)c1ccn2c1C(=O)OCC2,204 to 206
8,O=C(NC1CCC1)c1ccc(F)c2c1CC(N(CCCc1c[nH]c3ccc(F)cc13)C1CCC1)CO2 (stereo unspecified),135
9,CC(=O)OC1C(C)=C(C)C(=O)N1c1nc2ccc(F)cc2s1 (stereo unspecified),180 to 183
10,Cc1cccc2cc3c(=O)n(C)cc(C(=O)N[C@@H](C)C(=O)N(C)C)c3nc12,268 to 274
11,CCOC(=O)c1[nH]c(CC)c(CC)c1CC,47 to 49
12,CCCCCCCCCCCCCCCCCCOc1cc(N)cc(OCCCOc2ccccc2)c1,74 to 76
13,Cc1ccc(S(=O)(=O)N=NCNC[C@@H]2C[C@H](C(=O)O)N(C(=O)OC(C)(C)C)C2)cc1,132 to 133
14,O=c1c(O)coc2ccccc12,178 to 179
15,CCn1cc(C(=O)O)c(=O)c2ccc(I)cc21,237 to 238
16,COc1cccc(C(CN2CCN(c3cncc(Cl)n3)CC2)C2(O)CCCCC2)c1 (stereo unspecified),157 to 158
17,O=C(O)CCN1CCN(C2=Nc3ccccc3Cc3ccccc32)CC1,140 to 141
18,Cc1cc(C)n2nc(C)cc2n1,70 to 73
19,COC(=O)C(C)(C)CCOc1ccc(C2=NNC(=O)CC2)cc1Cl,109 to 110
20,Cc1nc(-n2cnn(CCCC(F)(F)F)c2=O)sc1C(=O)NCc1cccnc1,184 to 185
21,N#CN(Cc1ccccc1)C(=O)CCCC(=O)N(C#N)Cc1ccccc1,97.5 to 100
22,CN(C(CCN1C(=O)c2ccccc2C1=O)C(=O)NO)S(=O)(=O)c1ccc(Oc2cccc(Cl)c2)cc1 (stereo unspecified),81 to 84

row,Structure (SMILES),melting point [°C]
1,COc1ccc(C2CC(c3ccc(OC)c(OC)c3)=NN2c2ccc(C(=O)O)cc2)cc1 (stereo unspecified),141
2,CCCCCCCCCCCCCCCC(=O)NO,100 to 101
3,CC(Br)=C(c1ccc(F)cc1)c1ccc(F)cc1,53 to 54
4,CCOC(NC(=O)c1snc(Cl)c1Cl)C(F)(F)F (stereo unspecified),99 to 101
5,CNC(=O)Oc1ccc2c(N(C)CCN3CCOCC3)noc2c1,94 to 95
6,Cc1cccc2c1nc(-c1c(F)cccc1F)n2S(=O)(=O)c1ccccc1,134 to 135
7,CC(C(N)=O)c1ccc2c(=O)c3ccccc3ccc2c1 (stereo unspecified),158 to 159
8,CC(C)CCCCCCCCCCCC(=O)Nc1ccc(O)c(O)c1,85 to 86
9,CNC(=O)C(C)C(O)(Cn1cncn1)c1ccc(Cl)cc1Cl (stereo unspecified),242 to 244
10,N#Cc1ccccc1SC1SCC(O)C(O)C1O (stereo unspecified),118 to 119
11,C=Cc1ccc(S(=O)(=O)Nc2ncnc(Cl)c2Cc2c(OC)cccc2OC)cc1,197 to 198
12,Cn1c(C(F)(F)F)cc(=O)n(-c2ccc3snc(COCC(=O)O)c3c2)c1=O,191 to 192
13,N#Cc1ccc(Oc2ccc(CBr)cc2)cc1C#N,101 to 102
14,Cc1cc(-c2cc(C(F)(F)F)nn2-c2ccc(S(C)(=O)=O)cc2)ccc1-c1cocn1,148 to 150
15,COC(=O)c1cc(-c2ccc(C)cc2)n(-c2ccc(S(N)(=O)=O)cc2)n1,138 to 139
16,O=[N+]([O-])c1ccc(-c2nc(-c3cccnc3)no2)cc1,163 to 166
17,O=C(O)c1ccc(NC(=O)[C@H](CO)NS(=O)(=O)c2ccc(Cl)cc2)cc1,231 to 234
18,CC(C)OC(=O)N1CCC(c2nc3cc(-c4ccc(C(N)=O)cc4Cl)ccc3o2)CC1,178 to 182
19,Clc1ccc(-c2nc(-n3cccn3)oc2CCC2=NCCO2)cc1,79 to 80
20,O=C1NN=C(c2ccc3c(c2)CCN(C2CCC2)CC3)C2CCCC12 (stereo unspecified),198 to 201

# Second part, the compound after the results:
row,melting point [°C],Structure (SMILES)
1,169 to 171,COc1ccc(-c2cc(C(=O)O)c(=O)n(CC3CC3)n2)cc1F
2,290 to 292,Cc1nc2cc(C#N)cc(C#N)c2[nH]1
3,280 to 281,c1ccc2c(c1)c1ccccc1n2-c1ccc(-c2ccc(-n3c4ccccc4c4ccccc43)cc2)cc1
4,255 to 256,O=c1c(C2=Nc3ccccc3S(=O)(=O)N2)c(O)c2ccccc2n1CC1CCCC1
5,101 to 102,CCOC(=O)c1cc2c(C)ccc3c2n1CCO3
6,174,CSC(CC(CCCl)C(=O)c1ccccc1)C(N)C(N)=O (stereo unspecified)
7,109 to 111,COC(=O)/C(=N/N(C)C)c1ccc(OCCOc2ccc3ccccc3c2)cc1
8,126 to 130,CC1(C)CC(=O)Nc2ccc(N)cc21
9,178 to 179,O=C(/C=C/c1cccc(-c2cccc([N+](=O)[O-])c2)c1)Nc1ccc(CN2CCCCC2)cc1
10,142,Fc1ccc(-c2c[nH]cc2-c2ccc(F)cc2)cc1
11,121 to 122,CC(=O)OCC1OC(n2c(Cl)nc3ccc(Br)cc32)C(OC(C)=O)C1OC(C)=O (stereo unspecified)
12,205 to 208,Nc1ccnc(N2CCN(c3nc4cccccc-4n3)CC2)n1
13,236,CC(C)n1cc(-c2nc(C(N)=O)c(N)nc2-c2ccc(F)cc2)ccc1=O
14,74,CC(=O)c1c(C(C)C)nn2ccccc12
15,289 to 292,N#Cc1coc2ccc3ccc(O)cc3c2c1=O
16,180,Cc1cccc(C(=C2CN(C(c3ccccc3)c3ccccc3)C2)S(C)(=O)=O)c1
17,207,Cn1nc(-c2cc3c(cc2F)OCC(=O)N3)c(Cl)c1C(F)(F)F
18,218 to 220,COC(=O)c1[nH]c(-c2ccccc2)c(N=Cc2ccccc2)c1C(=O)OC
19,156 to 170,O=c1[nH]nc2ccc(NCCCN3CCC(OC(c4ccccc4)c4ccccc4)CC3)nn12

row,melting point [°C],Structure (SMILES)
1,118 to 119,CCc1ccc2c(OCC(=O)O)c(C(C)C)nn2c1
2,265,CCOC(=O)C1=C(C)NC(C)=C(C#N)C1c1ccnc2ncc(-c3ccccc3)cc12 (stereo unspecified)
3,147 to 150,CC12CCC(=O)C=C1CCC1C2CCC2(C)C(n3ccnc3)=CCC12 (stereo unspecified)
4,114 to 116,CC(C)=Cc1ccc(-c2ccc(C(CC3CCOCC3)c3ccc(S(=O)(=O)C4CC4)cc3)[nH]2)nc1 (stereo unspecified)
5,162 to 164,CC(C)(C)c1cc(I)c2c(c1)CNC1(O2)C2CC3CC(C2)CC1C3 (stereo unspecified)
6,132 to 134,COc1ccc(NC(=O)CCCn2nnnc2C)cc1
7,160 to 162,CC(C)(ON=C(C(=O)O)c1ccco1)C(N)=O
8,217 to 218,CNc1nc2c(s1)C(=O)CC(C)(C)C2
9,204 to 207,COc1c(Cl)ccc(-c2cc(N)c(Cl)c(C(=O)N3CCCO3)n2)c1F
10,207 to 208,CC(C)(CC(O)(Cn1ccc2c1CCCC2=O)C(F)(F)F)c1cc(S(C)(=O)=O)cc2c1OCC2 (stereo unspecified)
11,144 to 145,CC1(c2ccccc2)CNC(=O)O1 (stereo unspecified)
12,157 to 158,CCOc1ccc2c(c1)c(-c1ccc3c(c1)OCO3)c(C(=O)OC)c(=O)n2Cc1ccccc1OC
13,100 to 103,O=S1CCOCC1c1ccc(Cl)c(Cl)c1 (stereo unspecified)
14,209 to 211,COc1ccc(C(C)(C)C)cc1NC(=O)Nc1ccc(-c2cnc3c(c2)NC(=O)CS3(=O)=O)c2ccccc12
15,153 to 155,COC(=O)COc1ccccc1C1C(C(=O)OC)=C(C)NC(C)=C1C(=O)OC
16,340 to 341,Brc1ccc2c(c1)C1(c3ccccc3-c3ccccc31)c1cc(Br)ccc1-2
17,57 to 59,O=C1CCC(c2ccc(-c3ccc(F)cc3)o2)O1 (stereo unspecified)
18,232,O=C(CN1C(=O)c2ccccc2C1=O)Nc1ccccc1Cc1ccccc1
